Results as given in ChEMBL document CHEMBL3352442, “Synthesis and structure-activity relationships study of dithiolethiones as inducers of glutathione in the SH-SY5Y neuroblastoma cell line” (Bioorg Med Chem Lett, 2014).
Active and inactive are the calls of the source. The calls are words filed in the database; no cut-off is given here.

Experiments:
[1] = tested on: SH-SY5Y; test: Induction of glutathione in human SH-SY5Y cells at 100 uM incubated for 24 hrs by GSH/GSSG Glo assay; type: functional
[2] = Toxicity against human SH-SY5Y cells at 100 uM incubated for 24 hrs; type: cell-based
[3] = Neuroprotection against 50 uM 6-hydroxydopamine-induced neurotoxicity in human SH-SY5Y cells assessed as cell viability at 100 uM pre-incubated for 24 hrs before 6-hydroxydopamine challenge; type: functional
[4] = (§1) Neuroprotection against 25 uM 6-hydroxydopamine-induced neurotoxicity in human SH-SY5Y cells assessed as cell viability at 100 uM pre-incubated for 24 hrs before 6-hydroxydopamine challenge; type: functional
[5] = tested on: SH-SY5Y; test: as §1; type: functional

Row | SMILES | Activity [1] | Activity [2] | Activity [3] [%] | Activity [4] [%] | Activity [5]
1 | Cc1ssc(=S)c1Cl | 175% | Non-toxic | 33 | 52 | 
2 | CCc1cc(=S)ss1 | Active |  |  |  | 
3 | S=c1sscc1-c1ccccc1 | Active |  |  |  | 
4 | FC(F)(F)Cc1cssc1=S | Active |  |  |  | 
5 | COc1ccc(-c2cssc2=S)cc1 | Active |  |  |  | 
6 | S=c1ssc2c1CCC2 | 183% | Non-toxic | 22 | 41 | 
7 | S=c1cc(C2CC2)ss1 | Active |  |  |  | 
8 | S=c1sscc1-c1ccc(Cl)cc1 | Active |  |  |  | 
9 | S=c1ccss1 [DITHIOLETHIONE] | 215% | Non-toxic | 47 | 52 | 
10 | Oc1ccc(-c2cc(=S)ss2)cc1 | inactive |  |  |  | 
11 | S=c1ssc2c1CCCC2 | 98% |  |  |  | 
12 | COc1ccc(-c2cc(=S)ss2)cc1 | inactive |  |  |  | 
13 | S=c1cc(-c2ccc(Cl)cc2)ss1 | inactive |  |  |  | inactive
